Biological target: T1, human oxytocin receptor (Homo sapiens, UniProt P30559)
T1 construct: host or cells: CHO cells, stably transfected (pcDNA3.1 vector)
T1 sequence (P30559 1-389): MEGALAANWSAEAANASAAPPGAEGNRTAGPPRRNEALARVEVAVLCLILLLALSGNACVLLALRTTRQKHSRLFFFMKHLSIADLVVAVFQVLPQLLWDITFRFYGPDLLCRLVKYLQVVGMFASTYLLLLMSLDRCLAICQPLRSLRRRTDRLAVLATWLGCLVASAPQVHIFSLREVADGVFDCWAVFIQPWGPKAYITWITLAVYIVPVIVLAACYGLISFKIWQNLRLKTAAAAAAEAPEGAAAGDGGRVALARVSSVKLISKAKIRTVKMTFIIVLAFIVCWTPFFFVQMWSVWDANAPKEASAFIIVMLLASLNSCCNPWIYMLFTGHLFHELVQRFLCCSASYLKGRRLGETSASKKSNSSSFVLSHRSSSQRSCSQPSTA
Assay: Oxytocin binding in CHO cell membranes expressing human oxytocin receptors ([3H]oxytocin radioligand binding)
Settings: 100 nM, read-out: OT % inhibition @ 100 nM
Outline: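 Values are % inhibition at one concentration or nM IC50 from [3H]oxytocin displacement. Membranes from human oxytocin receptor CHO cells, 25–50 μg protein/well, 60 min at room temperature, pH 7.4 Tris buffer with protease inhibitors; bound label by filtration and scintillation counting.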

Point of comparison: `COc1cc(-c2ccccc2C)c(Cl)cc1C(=O)N1Cc2ccc(C(=O)NCc3ccncc3)n2Cc2ccccc21` [Example 94, 10-[(6-Chloro-3-methoxy-2′-methyl-[1,1′-biphenyl]-4-yl)carbonyl]-N-(4-pyridinylmethyl)-10,11-dihydro-5H-pyrrolo[2,1-c][1,4]benzodiazepine-3-carboxamide], inhibition at 0.1 µM 37%. Against it:
- Cc1ccccc1-c1ccc(C(=O)N2Cc3ccc(C(=O)N4CCN(c5ccccn5)CC4)n3Cc3ccccc32)cc1 [Example 79, {10-[(2′-Methyl-[1,1′-biphenyl]-4-yl)carbonyl]-10,11-dihydro-5H-pyrrolo[2,1-c][1,4]benzodiazepin-3-yl}[4-(2-pyridinyl)-1-piperazinyl]methanone] — higher, 49%
- COc1cc(C(=O)N2Cc3ccc(C(=O)N4CCN(c5ccccn5)CC4)n3Cc3ccccc32)ccc1-c1ccccc1C [Example 80, {10-[(2-Methoxy-2′-methyl-[1,1′-biphenyl]-4-yl)carbonyl]-10,11-dihydro-5H-pyrrolo[2,1-c][1,4]benzodiazepin-3-yl}[4-(2-pyridinyl)-1-piperazinyl]methanone] — higher, 50%
- COc1cc(-c2ccccc2C)c(Cl)cc1C(=O)N1Cc2ccc(C(=O)N3CCN(c4ccccn4)CC3)n2Cc2ccccc21 [Example 81, {10-[(6-Chloro-3-methoxy-2′-methyl-[1,1′-biphenyl]-4-yl)carbonyl]-10,11-dihydro-5H-pyrrolo[2,1-c][1,4]benzodiazepin-3-yl}[4-(2-pyridinyl)-1-piperazinyl]methanone] — higher, 50%
- COc1cccc(-c2cc(OC)c(C(=O)N3Cc4ccc(C(=O)N5CCN(c6ccccn6)CC5)n4Cc4ccccc43)cc2Cl)c1 [Example 82, {10-[(6-Chloro-3,3′-dimethoxy-[1,1′-biphenyl]-4-yl)carbonyl]-10,11-dihydro-5H-pyrrolo[2,1-c][1,4]benzodiazepin-3-yl}[4-(2-pyridinyl)-1-piperazinyl]methanone] — lower, 27%
- COc1ccccc1-c1ccc(C(=O)N2Cc3ccc(C(=O)N4CCN(c5ccccn5)CC4)n3Cc3ccccc32)cc1OC [Example 84, {10-[(2,2′-Dimethoxy-[1,1′-biphenyl]-4-yl)carbonyl]-10,11-dihydro-5H-pyrrolo[2,1-c][1,4]benzodiazepin-3-yl}[4-(2-pyridinyl)-1-piperazinyl]methanone] — higher, 46%
- COc1cccc(-c2ccc(C(=O)N3Cc4ccc(C(=O)N5CCN(c6ccccn6)CC5)n4Cc4ccccc43)cc2OC)c1 [Example 85, {10-[(2,3′-Dimethoxy-[1,1′-biphenyl]-4-yl)carbonyl]-10,11-dihydro-5H-pyrrolo[2,1-c][1,4]benzodiazepin-3-yl}[4-(2-pyridinyl)-1-piperazinyl]methanone] — lower, 32%
- O=C(c1ccc2n1Cc1ccccc1N(C(=O)c1ccc(-c3cccc4ccccc34)cc1Cl)C2)N1CCN(c2ccccn2)CC1 [Example 86, {10-[2-Chloro-4-(naphthalen-1-yl)benzoyl]-10,11-dihydro-5H-pyrrolo[2,1-c][1,4]benzodiazepin-3-yl}[4-(2-pyridinyl)-1-piperazinyl]methanone] — lower, 21%
- Cc1cc(C(=O)N2Cc3ccc(C(=O)N4CCN(c5ccccn5)CC4)n3Cc3ccccc32)ccc1-c1ccccc1C(F)(F)F [Example 87, (10-{[2-Methyl-2′-trifluoromethyl-[1,1′-biphenyl]-4-yl]carbonyl}-10,11-dihydro-5H-pyrrolo[2,1-c][1,4]benzodiazepin-3-yl)[4-(2-pyridinyl)-1-piperazinyl]methanone] — higher, 52%
- COc1ccccc1-c1ccc(C(=O)N2Cc3ccc(C(=O)NCc4ccncc4)n3Cc3ccccc32)cc1C [Example 88, 10-[(2′-Methoxy-2-methyl-[1,1′-biphenyl]-4-yl)carbonyl]-N-(4-pyridinylmethyl)-10,11-dihydro-5H-pyrrolo[2,1-c][1,4]benzodiazepine-3-carboxamide] — higher, 44%
- Cc1ccccc1-c1ccc(C(=O)N2Cc3ccc(C(=O)NCc4ccncc4)n3Cc3ccccc32)cc1C [Example 89, 10-[(2,2′-Dimethyl-[1,1′-biphenyl]-4-yl)carbonyl]-N-(4-pyridinylmethyl)-10,11-dihydro-5H-pyrrolo[2,1-c][1,4]benzodiazepine-3-carboxamide] — higher, 67%
- COc1cccc(-c2ccc(C(=O)N3Cc4ccc(C(=O)NCc5ccncc5)n4Cc4ccccc43)cc2C)c1 [Example 90, 10-[(3′-Methoxy-2-methyl-[1,1′-biphenyl]-4-yl)carbonyl]-N-(4-pyridinylmethyl)-10,11-dihydro-5H-pyrrolo[2,1-c][1,4]benzodiazepine-3-carboxamide] — higher, 44%
- COc1ccccc1-c1ccc(C(=O)N2Cc3ccc(C(=O)NCc4ccncc4)n3Cc3ccccc32)cc1 [Example 91, 10-[(2′-Methoxy-[1,1′-biphenyl]-4-yl)carbonyl]-N-(4-pyridinylmethyl)-10,11-dihydro-5H-pyrrolo[2,1-c][1,4]benzodiazepine-3-carboxamide] — higher, 44%
- Cc1ccccc1-c1ccc(C(=O)N2Cc3ccc(C(=O)NCc4ccncc4)n3Cc3ccccc32)cc1 [Example 92, 10-[(2′-Methyl-[1,1′-biphenyl]-4-yl)carbonyl]-N-(4-pyridinylmethyl)-10,11-dihydro-5H-pyrrolo[2,1-c][1,4]benzodiazepine-3-carboxamide] — lower, 30%
- COc1cc(C(=O)N2Cc3ccc(C(=O)NCc4ccncc4)n3Cc3ccccc32)ccc1-c1ccccc1C [Example 93, 10-[(2-Methoxy-2′-methyl-[1,1′-biphenyl]-4-yl)carbonyl]-N-(4-pyridinylmethyl)-10,11-dihydro-5H-pyrrolo[2,1-c][1,4]benzodiazepine-3-carboxamide] — higher, 69%
- COc1cccc(-c2cc(OC)c(C(=O)N3Cc4ccc(C(=O)NCc5ccncc5)n4Cc4ccccc43)cc2Cl)c1 [Example 95, 10-[(6-Chloro-3,3′-dimethoxy-[1,1′-biphenyl]-4-yl)carbonyl]-N-(4-pyridinylmethyl)-10,11-dihydro-5H-pyrrolo[2,1-c][1,4]benzodiazepine-3-carboxamide] — lower, 7%
- COc1cc(C(=O)N2Cc3ccc(C(=O)NCc4ccncc4)n3Cc3ccccc32)ccc1-c1cccc2ccccc12 [Example 96, 10-[3-Methoxy-4-(naphthalen-1-yl)benzoyl]-N-(4-pyridinylmethyl)-10,11-dihydro-5H-pyrrolo[2,1-c][1,4]benzodiazepine-3-carboxamide] — lower, 28%
- COc1ccccc1-c1ccc(C(=O)N2Cc3ccc(C(=O)NCc4ccncc4)n3Cc3ccccc32)cc1OC [Example 97, 10-[(2,2′-Dimethoxy-[1,1′-biphenyl]-4-yl)carbonyl]-N-(4-pyridinylmethyl)-10,11-dihydro-5H-pyrrolo[2,1-c][1,4]benzodiazepine-3-carboxamide] — lower, 36%
- O=C(NCc1ccncc1)c1ccc2n1Cc1ccccc1N(C(=O)c1ccc(-c3cccc4ccccc34)cc1Cl)C2 [Example 99, 10-[2-Chloro-4-(naphthalen-1-yl)benzoyl]-N-(4-pyridinylmethyl)-10,11-dihydro-5H-pyrrolo[2,1-c][1,4]benzodiazepine-3-carboxamide] — lower, 13%

Source: US7064120B2, “Tricyclic pyridyl carboxamides and derivatives thereof tocolytic oxytocin receptor antagonists” (Wyeth, priority 2001, dated 2006)
